Data as given in patent publication US8901138B2, “Sulfoximine substituted quinazolines for pharmaceutical compositions” (Boehringer Ingelheim International GmbH, priority 2012, dated 2014).
pIC50: −log10 of the molar value.

Assays:
MNK2a = target: T1, MNK2a (Homo sapiens, UniProt Q9HBH9); test: MNK2a in vitro kinase assay (assay 1), ADP-Glo; assay type: biochemical; conditions: preactivated GST-MNK2a, 20 μM ATP, read-out: MNK2 IC50
T1 construct: made in house
In short: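 Preactivated GST-MNK2a (10 nM) with eIF4E peptide (25 μM) and ATP (20 μM) in HEPES/DTT/MgCl2 buffer, 90 min at room temperature, final DMSO <3%. ADP formed read by ADP-Glo luminescence and normalised to vehicle and 20 μM reference-inhibitor controls; IC50 from dose-response curves.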

MNK1a = MNK1a (Homo sapiens, UniProt Q9BUB5); test: MNK1 in vitro kinase assay (assay 2), Z'-LYTE; assay type: biochemical; conditions: for inhibition at 1 µM: compound concentration of 1 μM; for pIC50: pre-activated GST-MNK1a
In short: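 Pre-activated GST-MNK1a (13.5-54 ng) with 2 μM Ser/Thr 07 FRET peptide in 50 mM HEPES pH 7.5, 10 mM MgCl2, 2 mM MnCl2, 1 mM EGTA, 1 mM DTT, 1% DMSO; 1 h kinase then 1 h development at room temperature. Coumarin/fluorescein emission ratio gives % phosphorylation; sigmoidal dose-response fit.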

T1 sequence (Q9HBH9 whole entry): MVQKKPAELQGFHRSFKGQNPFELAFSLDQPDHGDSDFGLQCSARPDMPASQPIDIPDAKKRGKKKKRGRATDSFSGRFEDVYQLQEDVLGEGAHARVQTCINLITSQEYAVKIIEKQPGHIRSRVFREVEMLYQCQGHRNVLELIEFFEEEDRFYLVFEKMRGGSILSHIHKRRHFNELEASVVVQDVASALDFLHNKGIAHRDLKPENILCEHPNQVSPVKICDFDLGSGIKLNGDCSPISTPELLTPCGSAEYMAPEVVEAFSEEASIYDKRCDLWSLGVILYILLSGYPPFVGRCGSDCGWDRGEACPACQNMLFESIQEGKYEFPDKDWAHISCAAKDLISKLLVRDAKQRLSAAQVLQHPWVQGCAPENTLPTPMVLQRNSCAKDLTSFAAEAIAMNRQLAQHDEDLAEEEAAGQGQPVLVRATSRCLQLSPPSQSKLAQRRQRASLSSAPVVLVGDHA
Sequence of MNK1a (Q9BUB5 1-424 isoform Q9BUB5-2): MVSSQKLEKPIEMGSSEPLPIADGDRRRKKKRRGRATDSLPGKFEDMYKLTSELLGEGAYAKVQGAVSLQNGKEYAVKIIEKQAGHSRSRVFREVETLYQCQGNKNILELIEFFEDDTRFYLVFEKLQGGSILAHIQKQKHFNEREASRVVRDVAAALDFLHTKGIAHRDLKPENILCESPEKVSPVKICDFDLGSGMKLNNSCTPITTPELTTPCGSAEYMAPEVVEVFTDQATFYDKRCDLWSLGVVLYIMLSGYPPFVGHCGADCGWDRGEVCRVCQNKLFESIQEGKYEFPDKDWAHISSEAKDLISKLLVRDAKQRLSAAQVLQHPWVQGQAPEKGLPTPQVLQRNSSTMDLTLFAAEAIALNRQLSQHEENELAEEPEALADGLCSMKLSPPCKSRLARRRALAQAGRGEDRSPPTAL

SMILES	pIC50 (MNK2a)	inhibition at 1 µM (MNK1a) [%]	pIC50 (MNK1a)
Cc1cc(N=S2(=O)CCC(O)CC2)cc2ncnc(Nc3ccc(F)cc3O[C@@H]3CO[C@@H]4CCO[C@@H]43)c12 (stereo partly drawn) [Example 2.94]	9.00	98	
Cc1cc(N=S(C)(=O)c2cccnc2)cc2ncnc(Nc3ccc(F)cc3O[C@@H]3CO[C@@H]4CCO[C@@H]43)c12 (stereo partly drawn) [Example 2.95]	8.40		7.48
Cc1cc(N=S2(=O)CCC(O)CC2)cc2ncnc(Nc3ccc(F)cc3O[C@H]3CCOC3)c12 (stereo partly drawn) [Example 2.97]	8.70	93	
Cc1cc(N=S2(=O)CCC2)cc2ncnc(Nc3ccc(F)cc3O[C@H]3CCOC3)c12 [Example 2.98]	9.00	95	
Cc1cc(N=S(C)(=O)C2CCOCC2)cc2ncnc(Nc3ccc(F)cc3O[C@@H]3CO[C@@H]4CCO[C@@H]43)c12 (stereo partly drawn) [Example 2.99]	8.30	96	
Cc1cc(N=S(C)(=O)c2ccncc2)cc2ncnc(Nc3ccc(F)cc3O[C@H]3CCOC3)c12 (stereo partly drawn) [Example 2.100]	8.22	89	
Cc1cc(N=S(C)(=O)C2CCOCC2)cc2ncnc(Nc3ccc(F)cc3O[C@H]3CCOC3)c12 (stereo partly drawn) [Example 2.101]	8.30	93	
Cc1cc(N=S(C)(=O)c2cccnc2)cc2ncnc(Nc3ccc(F)cc3O[C@H]3CCOC3)c12 (stereo partly drawn) [Example 2.102]	8.30		6.88
Cc1cc(N=S(C)(=O)C2CC2)cc2ncnc(Nc3ccc(F)cc3O[C@H]3CCOC3)c12 (stereo partly drawn) [Example 2.103]	8.15		7.09
Cc1cc(N=S(C)(=O)C(C)C)cc2ncnc(Nc3ccc(F)cc3O[C@H]3CCOC3)c12 (stereo partly drawn) [Example 2.104]	8.40	95	
Cc1cc(N=S2(=O)CCC2)cc2ncnc(Nc3ccc(F)cc3O[C@@H]3CO[C@@H]4CCO[C@@H]43)c12 [Example 2.106]	9.00	98	
Cc1cc(N=S(C)(=O)CCN2CCCC2)cc2ncnc(Nc3ccc(F)cc3O[C@H]3CC[C@H](O)CC3)c12 (stereo partly drawn) [Example 2.107]	8.00		6.99
Cc1cc(N=S(C)(=O)C(C)(C)C)cc2ncnc(Nc3ccc(F)cc3O[C@@H]3CO[C@@H]4CCO[C@@H]43)c12 (stereo partly drawn) [Example 2.108]	8.52	99	
Cc1cc(N=S(C)(=O)C(C)C)cc2ncnc(Nc3ccc(F)cc3O[C@@H]3CO[C@@H]4CCO[C@@H]43)c12 (stereo partly drawn) [Example 2.109]	8.70	100	
Cc1cc(N=S2(=O)CCC2)cc2ncnc(Nc3ccc(F)cc3O[C@H]3CC[C@H](O)CC3)c12 [Example 2.110]	8.70	100	
Cc1cc(N=S(C)(=O)C(C)(C)C#N)cc2ncnc(Nc3ccc(F)cc3O[C@H]3CCOC3)c12 (stereo partly drawn) [Example 2.111]	8.30	89	
Cc1cc(N=S(C)(=O)C(C)(C)C)cc2ncnc(Nc3ccc(F)cc3O[C@H]3CCOC3)c12 (stereo partly drawn) [Example 2.112]	8.22	89	
Cc1cc(N=S(C)(=O)CCN(C)C)cc2ncnc(Nc3ccc(F)cc3O[C@H]3CC[C@H](O)CC3)c12 (stereo partly drawn) [Example 2.113]	8.30	90	
Cc1cc(N=S(C)(=O)C2CC2)cc2ncnc(Nc3ccc(F)cc3O[C@@H]3CO[C@@H]4CCO[C@@H]43)c12 (stereo partly drawn) [Example 2.114]	8.70	96	
Cc1cc(N=S(C)(C)=O)cc2ncnc(Nc3ccc(F)cc3O[C@@H]3CO[C@H]4[C@@H]3OC[C@@H]4F)c12 [Example 2.116]	8.70	100	

SMILES	pIC50 (MNK2a)	inhibition at 1 µM (MNK1a) [%]	pIC50 (MNK1a)
Cc1cc(N=S2(=O)CCCC2)cc2ncnc(Nc3ccc(F)cc3O[C@@H]3CO[C@H]4[C@@H]3OC[C@@H]4F)c12 [Example 2.117]	9.00	101	
Cc1cc(N=S(C)(C)=O)cc2ncnc(Nc3ccc(F)cc3OC3COCOC3)c12 [Example 2.120]	8.70	103	
Cc1cc(N=S(C)(C)=O)cc2ncnc(Nc3ccc(F)cc3O[C@@H]3CO[C@@H]4CCO[C@@H]43)c12 [Example 2.121]	8.40	89	
Cc1cc(N=S(C)(C)=O)cc2ncnc(Nc3ccc(F)cc3O[C@@H]3CO[C@@H]4CCC[C@@H]43)c12 [Example 2.122]	8.70	98	
Cc1cc(N=S2(=O)CCCC2)cc2ncnc(Nc3ccc(F)cc3O[C@@H]3CO[C@@H]4CCC[C@@H]43)c12 [Example 2.123]	9.00	100	
Cc1cc(N=S(C)(C)=O)cc2ncnc(Nc3ccc(F)cc3O[C@@H]3CC[C@@H]4OCC[C@@H]43)c12 [Example 2.124]	8.40	83	
Cc1cc(N=S2(=O)CCCC2)cc2ncnc(Nc3ccc(F)cc3O[C@@H]3CC[C@@H]4OCC[C@@H]43)c12 [Example 2.125]	8.70	94	
Cc1cc(N=S(C)(C)=O)cc2ncnc(Nc3ccc(F)cc3OC3COC3)c12 [Example 2.126]	8.00	93	
CS(C)(=O)=Nc1cc(F)c2c(Nc3cccnc3O[C@@H]3CCCNC3)ncnc2c1 [Example 3.1]	6.95	50	
Cc1cc(N=S(C)(C)=O)cc2ncnc(Nc3cccnc3O[C@H]3CC[C@H](N)CC3)c12 [Example 3.2]	8.40	101	
Cc1cc(N=S2(=O)CCNCC2)cc2ncnc(Nc3ccc(F)cc3O[C@@H]3CO[C@H]4[C@@H]3OC[C@H]4O)c12 [Example 3.3]	8.30	95	
CS(C)(=O)=Nc1cc(F)c2c(Nc3cccnc3O[C@H]3CC[C@H](N)CC3)ncnc2c1 [Example 3.5]	8.30	101	
Cc1cc(N=S(C)(C)=O)cc2ncnc(Nc3cccnc3O[C@@H]3CCCNC3)c12 [Example 3.6]	7.16	80	
CS(C)(=O)=Nc1cc(F)c2c(Nc3ccc(F)cc3O[C@@H]3CCNC3)ncnc2c1 [Example 3.7]	7.44	81	
CS(C)(=O)=Nc1cc(F)c2c(Nc3ccc(F)cc3O[C@@H]3CCCNC3)ncnc2c1 [Example 3.8]	7.66	79	
Cc1cc(N=S(C)(C)=O)cc2ncnc(Nc3ccc(F)cc3O[C@@H]3CCCNC3)c12 [Example 3.9]	8.00	89	
CO[C@H]1CC[C@H](Oc2cc(F)ccc2Nc2ncnc3cc(N=S4(=O)CCNCC4)cc(C)c23)CC1 [Example 3.10]	8.10	88	
Cc1cc(N=S(C)(C)=O)cc2ncnc(Nc3ccc(F)cc3O[C@@H]3CCNC3)c12 [Example 3.11]	7.49	78	
Cc1cc(N=S2(=O)CCCC2)cc2ncnc(Nc3ccc(F)cc3O[C@@H]3CCCNC3)c12 [Example 3.12]	8.52	95	
Cc1cc(N=S(C)(C)=O)cc2ncnc(Nc3ccc(F)cc3O[C@H]3CC[C@H](C#N)CC3)c12 [Example 4.4]	8.40	92	

Now from value to compound:

pIC50 (MNK2a)	inhibition at 1 µM (MNK1a) [%]	pIC50 (MNK1a)	SMILES
8.70	101		CCOc1cc(N=S(C)(C)=O)cc2ncnc(Nc3ccc(F)cc3O[C@H]3CCOC3)c12 [Example 5.1]
8.22	90		COc1cc(N=S(C)(C)=O)cc2ncnc(Nc3ccc(F)cc3O[C@H]3CC[C@H](OC)CC3)c12 [Example 5.3]
7.82	78		CCOc1cc(N=S(C)(C)=O)cc2ncnc(Nc3ccc(F)cc3O[C@H]3CC[C@H](OC)CC3)c12 [Example 5.4]
8.70		7.85	CCOc1cc(N=S(C)(C)=O)cc2ncnc(Nc3ccc(F)cc3O[C@@H]3CO[C@H]4[C@@H]3OC[C@H]4OC)c12 [Example 5.5]
8.70		7.60	CO[C@@H]1CO[C@H]2[C@@H]1OC[C@H]2Oc1cc(F)ccc1Nc1ncnc2cc(N=S(C)(C)=O)cc(OCCF)c12 [Example 5.6]
8.70		7.37	CO[C@@H]1CO[C@H]2[C@@H]1OC[C@H]2Oc1cc(F)ccc1Nc1ncnc2cc(N=S(C)(C)=O)cc(OCC(F)F)c12 [Example 5.7]
8.10	85		CS(C)(=O)=Nc1cc(F)c2c(Nc3ccc(F)cc3O[C@@H]3CCCN(CCO)C3)ncnc2c1 [Example 6.1]
8.70	92		Cc1cc(N=S(C)(C)=O)cc2ncnc(Nc3ccc(F)cc3O[C@@H]3CCCN(CC(F)(F)F)C3)c12 [Example 6.6]
8.70	100		Cc1cc(N=S2(=O)CCCC2)cc2ncnc(Nc3ccc(F)cc3O[C@@H]3CCCN(CCO)C3)c12 [Example 6.7]
8.30	95		Cc1cc(N=S(C)(C)=O)cc2ncnc(Nc3ccc(F)cc3O[C@@H]3CCCN(CCO)C3)c12 [Example 6.9]
8.10	89		Cc1cc(N=S(C)(C)=O)cc2ncnc(Nc3cccnc3O[C@@H]3CCCN(CCO)C3)c12 [Example 6.10]
7.51	72		CS(C)(=O)=Nc1cc(F)c2c(Nc3cccnc3O[C@@H]3CCCN(CCO)C3)ncnc2c1 [Example 6.11]
7.92	91		CS(C)(=O)=Nc1cc(F)c2c(Nc3ccc(F)cc3O[C@@H]3CCCN(Cc4ncon4)C3)ncnc2c1 [Example 6.12]
8.40	80		CS(C)(=O)=Nc1cc(F)c2c(Nc3ccc(F)cc3O[C@@H]3CCCN(CC(F)(F)F)C3)ncnc2c1 [Example 6.13]
